# Reference: patent US20240325460A1, “MOLECULAR BACTE[…] CONTROL SKIN ENZYMATIC ACTIVITY” (The Regents of the University of California, priority 2017, published 2024)
# How the values were obtained:
# [1] = tested on: normal human epidermal keratinocytes (NHEKs); assay: Trypsin-like activity of NHEK conditioned medium (Boc-Val-Pro-Arg-AMC substrate); assay type: cell-based
# Method: (§1) Culture of primary human keratinocytes. Neonatal NHEKs (ThermoFisher Scientific, Waltham, MA) were cultured in EpiLife medium (ThermoFisher Scientific) supplemented with 1× EpiLife defined growth supplement (ThermoFisher Scientific), 60 μM CaCl2, and 1× antibiotic-antimycotic (PSA; 100 U/ml penicillin, […] streptomycin, 250 ng/ml amphotericin B; ThermoFisher Scientific) at 37° C., 5% CO2. For experiments, NHEKs were grown to 70% confluency followed by differentiation in high calcium EpiLife medium (2 mM CaCl2) for 48 hours before treatment with bacteria sterile filtered supernatant. […] For bacterial supernatant treatments, differentiated NHEKs were treated with sterile filtered bacterial supernatant at 5% by volume to EpiLife medium. NHEKs were only used for experiments between passages 3 and 5.
# Protease activity assays. […] Relative fluorescent intensity was analyzed with a SpectraMAX Gemini EM fluorometer (ThermoFisher Scientific) at RTwith readings every 2 hours for 24 hours. BODIPY FL casein plates were read at ex: 485 nm and em: 530 nm. Elastin-like and MMP substrate plates were read at ex: 485 nm and em: 515 nm. Trypsin-like substrate plates were read at ex: 354 nm and em: 435 nm. […]
# Trypsin Activity Analysis. […] Relative fluorescent intensity (ex: 354 nm, em: 435 nm) was analyzed with a SpectraMAX Gemini EM fluorometer (Thermo Fisher Scientific). […]
# [2] = tested on: KLK mRNA expression in NHEKs; assay: KLK mRNA expression in NHEKs by quantitative real-time PCR; assay type: cell-based, human; settings: synthetic peptide, normalized to GAPDH
# Method: Quantitative real-time PCR. RNA was isolated from NHEKs using Purelink RNA isolation columns (ThermoFisher Scientific) according to the manufacturer's instructions. RNA was quantified using a Nanodrop spectrophotometer (ThermoFisher Scientific), and 500 ng of RNA was reverse-transcribed using the iScript cDNA synthesis kit (Bio-Rad, Irvine, CA). Quantitative real-time PCR reactions were ran on a CFX96 real-time detection system (Bio-Rad) using gene-specific primers and TaqMan probes (ThermoFisher Scientific).
# RNA isolation and quantitative real-time PCR. All RNA was isolated using the Purelink RNA isolation kit according to manufacturer's instructions (Thermo Fisher Scientific). For NHEKs, 350 μL RNA lysis buffer (with 1% β-mercaptoethanol) was added directly to cells. For mouse tissue, 0.5 cm^2 full thickness skin was bead beat (2× 30 sec, 2.0 mm zirconia bead) in 750 μL of RNA lysis buffer with 5 minutes on ice in between. Tissue was than centrifuged (10 min, 13,000 RPM, 4° C.), followed by adding 350 μL of clear lysate to 70% EtOH and column based isolation of RNA. […] After RNA isolation, samples were quantified with a Nanodrop (ThermoFisher Scientific), and 500 ng of RNA was reverse-transcribed using the iScript cDNA synthesis kit (Bio-Rad). qPCR reactions were ran on a CFX96 Real-Time Detection System (Bio-Rad). […]
# [3] = tested on: normal human epidermal keratinocytes (NHEKs); assay: RNA-Seq transcriptional profiling of NHEKs; assay type: cell-based; settings: synthetic peptide, 24 h
# Method: RNA sequencing. RNA was submitted to the University of California, San Diego (UCSD) genomic core facility for library preparation and sequencing. TruSeq mRNA Library Prep Kit (Illumina) was used for library prep followed by high-throughput sequencing on a HiSeq 2500 sequencer (Illumina). Data was analyzed using Partek Flow and Partek Genomics Suite software and gene ontology analysis was performed using the PANTHER classification system (http[://]pantherdb.org).
# [4] = tested on: normal human epidermal keratinocytes (NHEKs); assay: Total protease activity of NHEK conditioned medium (BODIPY FL casein); assay type: cell-based; settings: 800 μg ml applied to 24-hour posttreatment conditioned medium
# Method: as §1
# Protease activity assays. […] Relative fluorescent intensity was analyzed with a SpectraMAX Gemini EM fluorometer (ThermoFisher Scientific) at RTwith readings every 2 hours for 24 hours. BODIPY FL casein plates were read at ex: 485 nm and em: 530 nm. Elastin-like and MMP substrate plates were read at ex: 485 nm and em: 515 nm. Trypsin-like substrate plates were read at ex: 354 nm and em: 435 nm.
Substance,dose and time dependence of trypsin activity stimulation in NHEKs ([1]; synthetic peptide),trypsin activity in NHEKs treated with synthetic PSM peptide ([1]; synthetic peptide added to NHEKs for up to 24 h),dose and time dependence of KLK6 mRNA expression in NHEKs [2],transcriptional profile (RNA-Seq) of NHEKs [3],effect of serine protease inhibitor on S. aureus-induced total protease activity [4]
f-MEFVAKLFKFFKDLLGKFLGNN [PSMα3],dose and time dependent manner,strongest PSMα trypsin activity inducers,dose and time dependent manner,broad effect on expression of genes related to the skin barrier,
aprotinin,,,,,confirmed that this activity was due to serine proteases
